Source: US12077503B2, “Substituted cyclic amides and their use as herbicides” (FMC CORPORATION, priority 2015, dated 2024)
Read-outs that look alike come from different tables or passages of the source.

Columns and labels:
Type in all cases: in vivo
Kochia (Kochia scoparia) [1] = experiment: Test A preemergence; conditions: Bassia scoparia, pre-emergence, 240 h; for pest or weed control at 125 g/ha: 125 g ai/ha; for pest or weed control at 500 g/ha: 500 g ai/ha
Summary of the method: (§1)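 Preemergence soil spray on seeded pots or post-emergence spray on 1–2 leaf plants, in loam–sand blend. Greenhouse ~10 d. Visual rating 0–100 against untreated plants.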

[2] = test system: barnyardgrass (Echinochloa crus-galli); experiment: Test A preemergence; conditions: Echinochloa crus-galli, pre-emergence, 240 h; for pest or weed control at 125 g/ha: 125 g ai/ha; for pest or weed control at 500 g/ha: 500 g ai/ha
Summary of the method: as §1

[3] = test system: giant foxtail (Setaria faberii); experiment: Test A preemergence; conditions: Setaria faberi, pre-emergence, 240 h; for pest or weed control at 125 g/ha: 125 g ai/ha; for pest or weed control at 500 g/ha: 500 g ai/ha
Summary of the method: as §1

[4] = test system: pigweed (Amaranthus retroflexus); experiment: Test A preemergence; conditions: Amaranthus retroflexus, pre-emergence, 240 h; for pest or weed control at 125 g/ha: 125 g ai/ha; for pest or weed control at 500 g/ha: 500 g ai/ha
[5] = test system: ragweed (common ragweed, Ambrosia elatior); experiment: Test A preemergence; conditions: Ambrosia artemisiifolia, pre-emergence, 240 h; for pest or weed control at 125 g/ha: 125 g ai/ha; for pest or weed control at 500 g/ha: 500 g ai/ha
Summary of the method: as §1

[6] = test system: ryegrass, Italian (Italian ryegrass, Lolium multiflorum); experiment: Test A preemergence; conditions: Lolium multiflorum, pre-emergence, 240 h; for pest or weed control at 125 g/ha: 125 g ai/ha; for pest or weed control at 500 g/ha: 500 g ai/ha
Summary of the method: as §1

[7] = test system: Galium (catchweed bedstraw, Galium aparine); experiment: Test A postemergence; conditions: Galium, post-emergence, 240 h, postemergence; for pest or weed control at 125 g/ha: 125 g ai/ha
Summary of the method: as §1

Kochia (Kochia scoparia) [8] = experiment: Test A postemergence; conditions: Bassia scoparia, post-emergence, 240 h, postemergence; for pest or weed control at 125 g/ha: 125 g ai/ha
Summary of the method: as §1

[9] = test system: barnyardgrass (Echinochloa crus-galli); experiment: Test A postemergence; conditions: Echinochloa crus-galli, post-emergence, 240 h; for pest or weed control at 125 g/ha: 125 g ai/ha
Summary of the method: as §1

corn (Zea mays) = experiment: Test A postemergence; conditions: Zea mays, post-emergence, 240 h
Summary of the method: as §1

[10] = test system: pigweed (Amaranthus retroflexus); experiment: Test A postemergence; conditions: Amaranthus retroflexus, post-emergence, 240 h, postemergence; for pest or weed control at 125 g/ha: 125 g ai/ha
Summary of the method: as §1

[11] = test system: barnyardgrass (Echinochloa crus-galli); experiment: Test B flooded paddy test; conditions: Echinochloa crus-galli, Flood, 250 g ai/ha; scale of 0 to 100 where 0 is no effect and 100 is complete control; read-out: Barnyardgrass plant response rating
Summary of the method: (§2)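 Percent control, visually estimated after 13–15 d in the greenhouse on a 0–100 basis, compares treated pots with untreated ones; compound was put into paddy water 3 cm above the soil when plants had two leaves.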

[12] = test system: ducksalad (Heteranthera limosa); experiment: Test B flooded paddy test; conditions: Heteranthera limosa, Flood, 250 g ai/ha; scale of 0 to 100 where 0 is no effect and 100 is complete control; read-out: Ducksalad plant response rating
Summary of the method: as §2

rice (Oryra sativa) = experiment: Test B flooded paddy test; conditions: Oryza sativa, Flood, 250 g ai/ha; scale of 0 to 100 where 0 is no effect and 100 is complete control; read-out: Rice plant response rating
Summary of the method: as §2

[13] = test system: sedge, umbrella (small-flower umbrella sedge, Cyperus difformis); experiment: Test B flooded paddy test; conditions: Cyperus difformis, Flood, 250 g ai/ha; scale of 0 to 100 where 0 is no effect and 100 is complete control; read-out: Sedge, Umbrella plant response rating
Summary of the method: as §2

Which results are given for `O=C1NC[C@H](c2ccc(F)c(OC(F)(F)C(F)(F)Br)c2)[C@H]1C(=O)Nc1cccc(F)c1F` (racemic) [Compound 914]?
pest or weed control at 125 g/ha (Kochia (Kochia scoparia) [1]; preemergence, 0 to 100 scale where 0 is no effect and 100 is complete control, read-out: Kochia plant response rating): 60%; pest or weed control at 500 g/ha (Kochia (Kochia scoparia) [1]; Preemergence, visual injury vs untreated controls after approximately 10 d, read-out: Kochia plant response rating (0 to 100 scale where 0 is no effect and 100 is complete control)): 60%; pest or weed control at 125 g/ha ([2]; preemergence, 0 to 100 scale where 0 is no effect and 100 is complete control, read-out: Barnyardgrass plant response rating): 70%; pest or weed control at 500 g/ha ([2]; Preemergence, visual injury vs untreated controls after approximately 10 d, read-out: Barnyardgrass plant response rating (0 to 100 scale where 0 is no effect and 100 is complete control)): 90%; pest or weed control at 125 g/ha ([3]; preemergence, 0 to 100 scale where 0 is no effect and 100 is complete control, read-out: Foxtail, Giant plant response rating): 90%; pest or weed control at 500 g/ha ([3]; Preemergence, visual injury vs untreated controls after approximately 10 d, read-out: Foxtail, Giant plant response rating (0 to 100 scale where 0 is no effect and 100 is complete control)): 90%; pest or weed control at 125 g/ha ([4]; preemergence, 0 to 100 scale where 0 is no effect and 100 is complete control, read-out: Pigweed plant response rating): 90%; pest or weed control at 500 g/ha ([4]; Preemergence, visual injury vs untreated controls after approximately 10 d, read-out: Pigweed plant response rating (0 to 100 scale where 0 is no effect and 100 is complete control)): 90%; pest or weed control at 125 g/ha ([5]; preemergence, 0 to 100 scale where 0 is no effect and 100 is complete control, read-out: Ragweed plant response rating): 0%; pest or weed control at 500 g/ha ([5]; Preemergence, visual injury vs untreated controls after approximately 10 d, read-out: Ragweed plant response rating (0 to 100 scale where 0 is no effect and 100 is complete control)): 0%; pest or weed control at 125 g/ha ([6]; preemergence, 0 to 100 scale where 0 is no effect and 100 is complete control, read-out: Ryegrass, Italian plant response rating): 0%; pest or weed control at 500 g/ha ([6]; Preemergence, visual injury vs untreated controls after approximately 10 d, read-out: Ryegrass, Italian plant response rating (0 to 100 scale where 0 is no effect and 100 is complete control)): 60%; pest or weed control at 125 g/ha ([7]; visual injury rating after approximately 10 d, read-out: Galium plant response rating (0 to 100 scale, 0 no effect, 100 complete control)): 60%; pest or weed control at 125 g/ha (Kochia (Kochia scoparia) [8]; visual injury rating after approximately 10 d, read-out: Kochia plant response rating (0 to 100 scale, 0 no effect, 100 complete control)): 70%; pest or weed control at 125 g/ha ([9]; postemergence, visual injury rating after approximately 10 d, read-out: Barnyardgrass plant response rating (0 to 100 scale, 0 no effect, 100 complete control)): 0%; plant injury at 125 g/ha (corn (Zea mays); 125 g ai/ha, postemergence, visual injury rating after approximately 10 d, read-out: Corn plant response rating (0 to 100 scale, 0 no effect, 100 complete control)): 0%; pest or weed control at 125 g/ha ([10]; visual injury rating after approximately 10 d, read-out: Pigweed plant response rating (0 to 100 scale, 0 no effect, 100 complete control)): 80%; pest or weed control at 250 g/ha [11]: 0%; pest or weed control at 250 g/ha [12]: 50%; pest or weed control at 250 g/ha (rice (Oryra sativa)): 15%; pest or weed control at 250 g/ha [13]: 0%

`CSc1ccccc1NC(=O)[C@H]1C(=O)NC[C@@H]1c1ccc(C)c(C)c1` [Compound 1036] was tested. Which pest or weed control at 125 g/ha (Kochia (Kochia scoparia) [1]; Preemergence, visual injury rating after approximately 10 d, read-out: Kochia plant response rating (0 to 100 scale, 0 is no effect, 100 is complete control)) did it give?
Its pest or weed control at 125 g/ha is 70%.

What about the pest or weed control at 500 g/ha (Kochia (Kochia scoparia) [1]; preemergence, visual injury rating about 10 d after treatment, 0 to 100 scale (0 no effect, 100 complete control), read-out: Kochia plant response rating) of the same molecule?
The pest or weed control at 500 g/ha was 90%.

What about the pest or weed control at 125 g/ha ([2]; Preemergence, visual injury rating after approximately 10 d, read-out: Barnyardgrass plant response rating (0 to 100 scale, 0 is no effect, 100 is complete control)) of the same molecule?
The pest or weed control at 125 g/ha was 90%.

What about the pest or weed control at 500 g/ha ([2]; preemergence, visual injury rating about 10 d after treatment, 0 to 100 scale (0 no effect, 100 complete control), read-out: Barnyardgrass plant response rating) of the same molecule?
Its pest or weed control at 500 g/ha is 90%.

And the pest or weed control at 125 g/ha ([3]; Preemergence, visual injury rating after approximately 10 d, read-out: Foxtail, Giant plant response rating (0 to 100 scale, 0 is no effect, 100 is complete control))?
The pest or weed control at 125 g/ha was 70%.

What about the pest or weed control at 500 g/ha ([3]; preemergence, visual injury rating about 10 d after treatment, 0 to 100 scale (0 no effect, 100 complete control), read-out: Foxtail, Giant plant response rating) of the same molecule?
The pest or weed control at 500 g/ha was 90%.

And the pest or weed control at 125 g/ha ([4]; Preemergence, visual injury rating after approximately 10 d, read-out: Pigweed plant response rating (0 to 100 scale, 0 is no effect, 100 is complete control))?
The pest or weed control at 125 g/ha was 0%.

And the pest or weed control at 500 g/ha ([4]; preemergence, visual injury rating about 10 d after treatment, 0 to 100 scale (0 no effect, 100 complete control), read-out: Pigweed plant response rating)?
The pest or weed control at 500 g/ha was 0%.

What about the pest or weed control at 125 g/ha ([5]; Preemergence, visual injury rating after approximately 10 d, read-out: Ragweed plant response rating (0 to 100 scale, 0 is no effect, 100 is complete control)) of the same molecule?
Its pest or weed control at 125 g/ha is 0%.

And the pest or weed control at 500 g/ha ([5]; preemergence, visual injury rating about 10 d after treatment, 0 to 100 scale (0 no effect, 100 complete control), read-out: Ragweed plant response rating)?
Its pest or weed control at 500 g/ha is 50%.

And the pest or weed control at 125 g/ha ([6]; Preemergence, visual injury rating after approximately 10 d, read-out: Ryegrass, Italian plant response rating (0 to 100 scale, 0 is no effect, 100 is complete control))?
Its pest or weed control at 125 g/ha is 20%.

And the pest or weed control at 500 g/ha ([6]; preemergence, visual injury rating about 10 d after treatment, 0 to 100 scale (0 no effect, 100 complete control), read-out: Ryegrass, Italian plant response rating)?
The pest or weed control at 500 g/ha was 20%.

And the pest or weed control at 125 g/ha ([7]; visual injury on 0 to 100 scale (0 no effect, 100 complete control), approx. 10 d, read-out: Galium plant response rating)?
Its pest or weed control at 125 g/ha is 20%.

And the pest or weed control at 500 g/ha ([7]; 500 g ai/ha, visual injury, 0 to 100 scale (0 no effect, 100 complete control), approx. 10 d, read-out: Plant response rating, Galium)?
The pest or weed control at 500 g/ha was 30%.

And the pest or weed control at 125 g/ha (Kochia (Kochia scoparia) [8]; visual injury on 0 to 100 scale (0 no effect, 100 complete control), approx. 10 d, read-out: Kochia plant response rating)?
Its pest or weed control at 125 g/ha is 0%.

And the pest or weed control at 500 g/ha (Kochia (Kochia scoparia) [8]; 500 g ai/ha, visual injury, 0 to 100 scale (0 no effect, 100 complete control), approx. 10 d, read-out: Plant response rating, Kochia)?
The pest or weed control at 500 g/ha was 0%.

What about the pest or weed control at 125 g/ha ([9]; Postemergence, visual injury after approximately 10 d, 0 to 100 scale where 0 is no effect and 100 is complete control, read-out: Plant response rating, Barnyardgrass) of the same molecule?
Its pest or weed control at 125 g/ha is 70%.

What about the pest or weed control at 500 g/ha ([9]; 500 g ai/ha, postemergence, visual injury, 0 to 100 scale (0 no effect, 100 complete control), approx. 10 d, read-out: Plant response rating, Barnyardgrass) of the same molecule?
Its pest or weed control at 500 g/ha is 90%.

And the Corn plant response rating (crop injury, 0 = no effect, 100 = complete kill) at 125 g/ha (corn (Zea mays); 125 g ai/ha, Postemergence, visual injury after approximately 10 d, 0 to 100 scale where 0 is no effect and 100 is complete control)?
The Corn plant response rating (crop injury, 0 = no effect, 100 = complete kill) at 125 g/ha was 0%.

What about the Corn plant response rating (crop injury, 0 = no effect, 100 = complete kill) at 500 g/ha (corn (Zea mays); 500 g ai/ha, postemergence, visual injury, 0 to 100 scale (0 no effect, 100 complete control), approx. 10 d) of the same molecule?
The Corn plant response rating (crop injury, 0 = no effect, 100 = complete kill) at 500 g/ha was 20%.

What about the pest or weed control at 125 g/ha ([10]; visual injury on 0 to 100 scale (0 no effect, 100 complete control), approx. 10 d, read-out: Pigweed plant response rating) of the same molecule?
The pest or weed control at 125 g/ha was 0%.

What about the pest or weed control at 500 g/ha ([10]; 500 g ai/ha, visual injury, 0 to 100 scale (0 no effect, 100 complete control), approx. 10 d, read-out: Plant response rating, Pigweed) of the same molecule?
The pest or weed control at 500 g/ha was 0%.
